Tests used:
CXCR7 receptor [1] = target: T1, CXCR7 receptor (Homo sapiens (Human), UniProt P25106); assay: Serum Binding Analysis: displacement of 125I SDF-1 from CXCR7 in 100% human serum; details: 100% human serum (human AB serum with 10 mM HEPES), MCF-7 and/or MDA-MB-435S CXCR7 transfected cells, 125I SDF-1, 3 hrs at 4° C.; read-out: Avg Ser IC50
Method: (§1) The ability of the compounds to displace the labeled chemokine from the CXCR7 receptor sites at multiple concentrations was then determined with the screening process.
(§2) ^125I-labeled SDF-1 was purchased from Perkin-Elmer Life Sciences, Inc. (Boston, Mass.). The MCF-7 (adenocarcinoma; mammary gland) cell line was obtained from the American Type Culture Collection (ATCC, Manassas, Va.) or and was cultured in DMEM (Mediatech, Herndon, Va.) supplemented with 10% fetal bovine serum (FBS) (HyClone Logan, Utah) and bovine insulin (0.01 mg/mL) (Sigma, St. Louis, Mo.) at 37° C. in a humidified incubator at a 5% CO2/air mixture. CXCR7 transfected MDA-MB-435S were produced as described below. MDA-MB-435 S human breast cancer line, was purchased from ATCC, and cultured in DMEM/10% FBS medium. The complete coding sequence of the gene encoding CXCR7 (a.k.a. CCXCKR2, hRDC1), was isolated from MCF-7 cells using MACs mRNA isolation kit (Miltenyi Biotec, Auburn, Calif.). DNA contamination was removed by DNase digestion via RNeasy columns (Qiagen, Inc., Valencia, Calif.) and cDNA was generated using GeneAmp RNA PCR Core Kit (Applied Biosystems, Foster City, Calif.). PCR of cDNA samples was performed using Taq PCR Master Mix kit (Qiagen, Inc.) and hRDC1 primers harboring 5′ and 3′ Not I sites (hRDC1F 5′ […]-3′, hRDC1R 5′-[…]-3′) Not I digested PCR product was ligated into Not I digested pcDNA3.1 (+)(Invitrogen, Carlsbad, Calif.) and screened for orientation and sequence confirmed. Plasmid DNA was then isolated from overnight bacterial cultures by Maxiprep (Qiagen, Inc.). Plasmid DNA (10 μg) was added to MDA-MB-435s cells and cells were electroporated (0.22 kV, 960 uF) via Gene Pulser (Biorad laboratories, Hercules, Calif.). 48 hr post-electroporation, cells were transferred to selection medium (600 ug/ml G418).
In order to more properly assess the binding efficacy of the compounds, radioligand binding assays were carried out in the presence of 100% human serum to more accurately reflect the in vivo environment. […] Target compounds were tested to determine their ability to bind with CXCR7 sites on MCF-7 and/or MDA-MB-435S CXCR7 transfected cells. Efficiency-maximized radioligand binding using filtration protocols as described in Dairaghi D J, et al., HHV8-encoded vMIP-I selectively engages chemokine receptor CCR5. Agonist and antagonist profiles of viral chemokines., J. Biol. Chem. 1999 Jul. 30; 274(31): 21569-74 and Gosling J, et al., Cutting edge: identification of a novel chemokine receptor that binds dendritic cell- and T cell-active chemokines including ELC, SLC, and TECK., J. Immunol. 2000 Mar. 15; 164(6):2851-6 was used.
In these assays, MCF-7 and/or MDA-MB-435S cells were interrogated with the target compounds and the ability of these compounds to displace 125 I radiolabeled SDF-1 was assessed using the protocol described in Dairaghi and Gosling. The target compounds were added to the plate to the indicated concentration followed by addition of cells and radiolabeled chemokine (125I SDF-1), both in the following medium (human AB serum with 10 mM HEPES added to stabilize at pH 7.4). All assays were then incubated for 3 hrs at 4° C. with gentle agitation. Following incubation in all binding assays, reactions were aspirated onto PEI-treated GF/B glass filters (Packard) using a cell harvester (Packard) and washed twice (25 mM HEPES, 500 mM NaCl, 1 mM CaCl2, 5 mM MgCl2, adjusted to pH 7.1). Scintillant (MicroScint 10, Packard) was added to the wells, and the filters were counted in a Packard Topcount scintillation counter. Data were analyzed and plotted using GraphPad Prism (GraphPad Software).

CXCR7 receptor [2] = target: T1, CXCR7 receptor; assay: Buffer Binding Analysis: displacement of 125I-labeled SDF-1 from CXCR7 on cells; details: buffer binding medium, MCF-7 and/or MDA-MB-435S CXCR7 transfected cells, 125I SDF-1, 3 hr at 4° C.; read-out: Avg Bind IC50
Method: as §1, §2
Target compounds can be tested to determine their ability to bind with CXCR7 sites on MCF-7 and/or MDA-MB-435S CXCR7 transfected cells. Efficiency-maximized radioligand binding using filtration protocols as described in Dairaghi D J, et al., HHV8-encoded vMIP-1 selectively engages chemokine receptor CCR5. Agonist and antagonist profiles of viral chemokines., J. Biol. Chem. 1999 Jul. […]
In these assays, MCF-7 and/or MDA-MB-435S cells are interrogated with the target compounds and the ability of these compounds to displace ^125I radiolabeled SDF-1 assessed using the protocol described in Dairaghi and Gosling. […] Scintillant (MicroScint 10, Packard) is added to the wells, and the filters counted in a Packard Topcount scintillation counter. Data are analyzed and plotted using GraphPad Prism (GraphPad Software).

[3] = tested on: C6 cells implanted into the brains of Sprague-Dawley rats; assay: Rat C6 model of glioblastoma; format: in vivo; details: tumors irradiated after 7 days with 5-20 Gy, then treated with compound
Method: Many tumor models in animals are known in the art, and may be employed to evaluate a compound of instance. For instance, in a rat C6 model of glioblastoma, 1×10^6 C6 cells were implanted by stereotactic injection into the into the brains of Sprague-Dawley rats. After 7 days tumors were irradiated with between 5-20 Gy of radiation. Following irradiation rats were treated (eg via subcutaneous, intraperitoneal, oral, parenteral or other route) with compound or vehicle control and tumors are allowed to progress. Animals were followed until death or loss of >20% weight, or removed for tumor induced neurodeficits eg seizures and immobility in according with appropriate regulations and standards.

T1 sequence (P25106 whole entry): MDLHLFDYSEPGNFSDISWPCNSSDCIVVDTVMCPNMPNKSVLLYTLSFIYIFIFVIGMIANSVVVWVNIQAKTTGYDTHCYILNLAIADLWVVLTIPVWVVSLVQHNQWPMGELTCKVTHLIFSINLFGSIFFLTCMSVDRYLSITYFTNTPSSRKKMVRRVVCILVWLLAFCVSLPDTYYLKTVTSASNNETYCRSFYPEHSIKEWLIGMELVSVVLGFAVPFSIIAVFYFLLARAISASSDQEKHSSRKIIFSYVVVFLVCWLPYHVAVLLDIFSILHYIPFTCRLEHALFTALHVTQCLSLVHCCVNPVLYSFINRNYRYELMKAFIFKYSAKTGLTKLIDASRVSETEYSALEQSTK

Row | SMILES | IC50 (CXCR7 receptor [1]) | IC50 (CXCR7 receptor [2]) | antitumor activity (delay in tumor growth vs vehicle treated control; Kaplan Meier analysis of survival) [3]
1 | O=C(N[C@H]1CCN(c2nccn3cnnc23)C1)c1ncn(-c2ccccc2)n1 [Compound 1.127] | 500 to 2500 nM |  | 
2 | O=C(N[C@@H]1CCN(c2nccn3ccnc23)C1)c1ncn(-c2ccccc2)n1 [Compound 1.027] | 500 to 2500 nM |  | 
3 | O=C(N[C@H]1CCN(c2nccn3ccnc23)C1)c1ncn(-c2ccc(F)cc2)n1 [Compound 1.090] |  |  | profound antitumor activity
4 | O=C(N[C@H]1CCN(c2nccn3ccnc23)C1)c1csc(N2CCC3(CC3)C(O)C2)n1 (stereo partly shown) [Compound 1.047] | 2500 to 15000 nM |  | 
5 | O=C(N[C@H]1CCN(c2nccn3ccnc23)C1)c1noc(-c2ccccc2)n1 [Compound 1.121] | ≤ 500 nM | ≤ 500 nM | 

More lines, main results first:

Row | IC50 (CXCR7 receptor [1]) | IC50 (CXCR7 receptor [2]) | SMILES | antitumor activity (delay in tumor growth vs vehicle treated control; Kaplan Meier analysis of survival) [3]
6 | ≤ 500 nM | ≤ 500 nM | Cc1ccn2ccnc(N3CC[C@H](NC(=O)c4csc(N5CCC(O)CC5)n4)C3)c12 [Compound 1.097] | 
7 | ≤ 500 nM | ≤ 500 nM | O=C(N[C@H]1CCN(c2nccn3cccc23)C1)c1csc(N2CCC(O)CC2)n1 [Compound 1.098] | 
8 | ≤ 500 nM | ≤ 500 nM | O=C(N[C@H]1CCN(c2nccn3cccc23)C1)c1ccn(-c2ccc(F)cc2)n1 [Compound 1.128] | 
9 | ≤ 500 nM |  | CN(C)c1cnc(C(=O)N[C@H]2CCN(c3nccn4cccc34)C2)nc1 [Compound 1.049] | 

Reference: patent US11059825B2, “CXCR7 antagonists” (CHEMOCENTRYX, INC., priority 2012, dated 2021)
